From PubChem BioAssay AID2060898 (Molecular Pharmacology Branch, DTP, NCI, 2025)

System: 616215-338-R-J1-PDC complex spheroid viability
Assay: Anticancer human tumor 616215-338-R-J1-PDC patient-derived colon adenocarcinoma cell line growth inhibition [RAS]
Settings: for IC50: curve of first compound; for viability, T/C: stronger effect = lower value; active = viability on the fitted dose curve at most 10% of control; inactive = the rest
In short: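 Multi-cell-type spheroids: tumor cells plus HUVEC endothelial cells and mesenchymal stem cells. RAS-pathway inhibitors were combined with targeted agents, each dosed in half-log steps down from clinical Cmax, or from 10 microM when Cmax was unknown.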

[1] = second compound 0.000949 µM, first compound 0.0316 µM
[2] = second compound 0.000949 µM, first compound 0.1 µM
[3] = second compound 0.000949 µM, first compound 0.316 µM
[4] = second compound 0.000949 µM, first compound 1 µM
[5] = second compound 0.000949 µM, first compound 3.16 µM
[6] = second compound 0.000949 µM, first compound 10 µM
[7] = second compound 0.003 µM, first compound 0.0316 µM
[8] = second compound 0.003 µM, first compound 0.1 µM
[9] = second compound 0.003 µM, first compound 0.316 µM
[10] = second compound 0.003 µM, first compound 1 µM
[11] = second compound 0.003 µM, first compound 3.16 µM
[12] = second compound 0.003 µM, first compound 10 µM
[13] = second compound 0.00949 µM, first compound 0.0316 µM
[14] = second compound 0.00949 µM, first compound 0.1 µM
[15] = second compound 0.00949 µM, first compound 0.316 µM
[16] = second compound 0.00949 µM, first compound 1 µM
[17] = second compound 0.00949 µM, first compound 3.16 µM
[18] = second compound 0.00949 µM, first compound 10 µM
[19] = second compound 0.03 µM, first compound 0.0316 µM
[20] = second compound 0.03 µM, first compound 0.1 µM
[21] = second compound 0.03 µM, first compound 0.316 µM
[22] = second compound 0.03 µM, first compound 1 µM
[23] = second compound 0.03 µM, first compound 3.16 µM
[24] = second compound 0.03 µM, first compound 10 µM
[25] = second compound 0.0949 µM, first compound 0.0316 µM
[26] = second compound 0.0949 µM, first compound 0.1 µM
[27] = second compound 0.0949 µM, first compound 0.316 µM
[28] = second compound 0.0949 µM, first compound 1 µM
[29] = second compound 0.0949 µM, first compound 3.16 µM
[30] = second compound 0.0949 µM, first compound 10 µM
[31] = second compound 0.3 µM, first compound 0.0316 µM
[32] = second compound 0.3 µM, first compound 0.1 µM
[33] = second compound 0.3 µM, first compound 0.316 µM
[34] = second compound 0.3 µM, first compound 1 µM
[35] = second compound 0.3 µM, first compound 3.16 µM
[36] = second compound 0.3 µM, first compound 10 µM
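Note: spheroids exposed to agents for seven days before viability readout.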
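Throughout, for viability, T/C: 100% = DMSO vehicle control viability.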

NC1c2ccccc2OC12CCN(c1cnc3c(N4CCCc5ncccc54)n[nH]c3n1)CC2 (centres undefined) + CCn1c(-c2cccnc2C(C)OC)c2c3cc(ccc31)N1CCOC(CC(NC(=O)C(C(C)C)N(C)C(=O)C3(F)CCN(C(=O)C#CC(C)(C)N(C)C)CC3)C(=O)N3CCCC(N3)C(=O)OCC(C)(C)C2)C1
7000 nM: IC50 (second compound 0.003 µM)
6250 nM: IC50 (second compound 0.000949 µM)
564 nM: IC50 (second compound 0.3 µM)
1700 nM: IC50 (second compound 0.0949 µM)
inactive: viability, T/C [1] 121% | viability, T/C [2] 92.4% | viability, T/C [3] 81.9% | viability, T/C [4] 67.8% | viability, T/C [5] 61% | viability, T/C [6] 43.1% | viability, T/C [7] 119% | viability, T/C [8] 94.7% | viability, T/C [9] 75.5% | viability, T/C [10] 64.8% | viability, T/C [11] 64.2% | viability, T/C [12] 43% | viability, T/C [13] 113% | viability, T/C [14] 85.2% | viability, T/C [15] 72.7% | viability, T/C [16] 59% | viability, T/C [17] 64.6% | viability, T/C [18] 49.5% | viability, T/C [19] 106% | viability, T/C [20] 85.1% | viability, T/C [21] 76.9% | viability, T/C [22] 56.4% | viability, T/C [23] 56.7% | viability, T/C [24] 35% | viability, T/C [25] 105% | viability, T/C [26] 75.7% | viability, T/C [27] 59.4% | viability, T/C [28] 56.3% | viability, T/C [29] 51.8% | viability, T/C [30] 38.5% | viability, T/C [31] 73.4% | viability, T/C [32] 58% | viability, T/C [33] 56.2% | viability, T/C [34] 46.6% | viability, T/C [35] 42.8% | viability, T/C [36] 41%
> 10000 nM: IC50 (second compound 0.00949 µM)
2960 nM: IC50 (second compound 0.03 µM)

CC(=O)OC12COC1CC(O)C1(C)C(=O)C(O)C3=C(C)C(OC(=O)C(O)C(NC(=O)OC(C)(C)C)c4ccccc4)CC(O)(C(OC(=O)c4ccccc4)C21)C3(C)C (centres undefined) + CCn1c(-c2cccnc2C(C)OC)c2c3cc(ccc31)N1CCOC(CC(NC(=O)C(C(C)C)N(C)C(=O)C3(F)CCN(C(=O)C#CC(C)(C)N(C)C)CC3)C(=O)N3CCCC(N3)C(=O)OCC(C)(C)C2)C1
inactive: viability, T/C [1] 30.9% | viability, T/C [2] 20.4% | viability, T/C [3] 19.5% | viability, T/C [4] 19.6% | viability, T/C [5] 22.6% | viability, T/C [6] 28.7% | viability, T/C [7] 30.8% | viability, T/C [8] 23.1% | viability, T/C [9] 20.3% | viability, T/C [10] 22.1% | viability, T/C [11] 24.2% | viability, T/C [12] 27% | viability, T/C [13] 28% | viability, T/C [14] 24.2% | viability, T/C [15] 19.9% | viability, T/C [16] 20.8% | viability, T/C [17] 24.8% | viability, T/C [18] 24.6% | viability, T/C [19] 25.9% | viability, T/C [20] 21.9% | viability, T/C [21] 18.3% | viability, T/C [22] 19% | viability, T/C [23] 22.6% | viability, T/C [24] 22.4% | viability, T/C [25] 33% | viability, T/C [26] 19.8% | viability, T/C [27] 19.8% | viability, T/C [28] 19% | viability, T/C [29] 22.2% | viability, T/C [30] 23.1% | viability, T/C [31] 28.8% | viability, T/C [32] 17.9% | viability, T/C [33] 17% | viability, T/C [34] 17.6% | viability, T/C [35] 20.8% | viability, T/C [36] 25.5%
< 31.6 nM: IC50 (second compound 0.000949 µM) | IC50 (second compound 0.003 µM) | IC50 (second compound 0.00949 µM) | IC50 (second compound 0.03 µM) | IC50 (second compound 0.0949 µM) | IC50 (second compound 0.3 µM)
